# Data reported in patent US20080262097A1, “Formulations” (priority 2005, published 2008).
# Like-named read-outs stand apart in the source and are kept apart here.
# Legend:
# S. aureus ATCC 29213 [1] = experiment: Disc diffusion assay (DDA); assay type: cell-based, Staphylococcus aureus
# Text: 1. Staphylococcus aureus—the principal staphylococcal test micro-organism used in these studies was Staphylococcus aureus ATCC 29213. This strain is the one recommended for QC/QA purposes in Minimum Inhibitory Concentration (MIC) assays by the US Clinical and Laboratory Standards Institute (formerly the NCCLS), an FDA-recognised body. S. aureus ATCC 29213 is susceptible to beta-lactam antibiotics such as methicillin and to many other antibiotics in clinical use worldwide today. The staphylococci and enterococci were cultured and maintained on Mueller-Hinton Medium (agar and broth) at pH 7.2; they were incubated aerobically at 37° C. for 24 hours. A sterile paper disc was impregnated with a sample of the test compound and a minimum of 30 minutes allowed for the solvents to evaporate as far as possible. The disc was then placed on an agar plate onto which the test micro-organism had been inoculated. The plate was then incubated under the conditions described above, following which it was examined visually for signs of bacterial growth. If the test compound had antimicrobial activity, a circular zone of no growth would be obtained around the disc. The diameter of this zone of “inhibition” was measured using a ProtoCOL™ automated zone sizer (Synbiosis, Cambridge, UK). In general, a greater diameter and/or area of the zone of inhibition indicates a greater antimicrobial activity in the relevant test compound, although other factors such as test compound mobility through the agar gel may also influence the result. […] The exceptions were the thymoquinone assays, in which only 50 μg of the benzoquinone was used.
# P. acnes NCTC 737 [2] = experiment: Disc diffusion assay (DDA); assay type: cell-based, Propionibacterium acnes; settings: 200 μg per disc
# Description: 2. Propionibacterium spp.—the principal propionibacterial strain used in these studies was Propionibacterium acnes NCTC 737.
# The Propionibacterium spp organisms were cultured and maintained on Wilkins-Chalgren Anaerobe Medium (agar and broth) at pH 6.0; cultures were incubated anaerobically at 37° C. for 72 hours.
# A sterile paper disc was impregnated with a sample of the test compound and a minimum of 30 minutes allowed for the solvents to evaporate as far as possible. The disc was then placed on an agar plate onto which the test micro-organism had been inoculated. The plate was then incubated under the conditions described above, following which it was examined visually for signs of bacterial growth. […] The diameter of this zone of “inhibition” was measured using a ProtoCOL™ automated zone sizer (Synbiosis, Cambridge, UK).
# The area of the zone of inhibition was calculated from the measured zone diameter (D) using the formula π(D/2)^2.
# For all (S)DDA assays, 200 μg of each compound was loaded onto each disc.
# [3] = test system: Staphylococcus simulans ATCC 27848; experiment: MBC assay; assay type: cell-based; settings: ATCC27848
# Description: (§1) The staphylococci and enterococci were cultured and maintained on Mueller-Hinton Medium (agar and broth) at pH 7.2; they were incubated aerobically at 37° C. for 24 hours.
# (§2) This assay, normally carried out after an MIC assay, determines the minimum concentration of a compound that is lethal to the micro-organism being tested.
# (§3) These samples were then individually sub-cultured on non-selective agar medium, under the incubation conditions described above. Following incubation they were examined visually for bacterial growth.
# S. aureus ATCC 25923 = experiment: MBC assay; assay type: cell-based; settings: Staphylococcus aureus, ATCC25923
# Description: as §1, §2, §3
# [4] = test system: Staphylococcus aureus ATCC 12600; experiment: MBC assay; assay type: cell-based; settings: ATCC12600
# Description: as §1, §2, §3
# S. aureus ATCC 12606 = experiment: MBC assay; assay type: cell-based; settings: Staphylococcus aureus, ATCC12606
# Description: as §1, §2, §3
# [5] = test system: Staphylococcus auricularis ATCC 33753; experiment: MBC assay; assay type: cell-based; settings: ATCC33753
# Description: as §1, §2, §3
# P. acnes NCTC 737 [6] = experiment: Supplemented disc diffusion assay (DDA + salt or lipid); assay type: cell-based, Propionibacterium acnes; settings: 200 μg per disc; for DDA + lipid: agar supplemented with lipid; for DDA + salt: agar supplemented with salt
# Description: The Propionibacterium spp organisms were cultured and maintained on Wilkins-Chalgren Anaerobe Medium (agar and broth) at pH 6.0; cultures were incubated anaerobically at 37° C. for 72 hours. A sterile paper disc was impregnated with a sample of the test compound and a minimum of 30 minutes allowed for the solvents to evaporate as far as possible. The disc was then placed on an agar plate onto which the test micro-organism had been inoculated. The plate was then incubated under the conditions described above, following which it was examined visually for signs of bacterial growth. If the test compound had antimicrobial activity, a circular zone of no growth would be obtained around the disc. The diameter of this zone of “inhibition” was measured using a ProtoCOL™ automated zone sizer (Synbiosis, Cambridge, UK). In general, a greater diameter and/or area of the zone of inhibition indicates a greater antimicrobial activity in the relevant test compound, although other factors such as test compound mobility through the agar gel may also influence the result. Either the DDA or the SDDA tests may be carried out using an agar gel supplemented with blood, lipid and/or salt to simulate some of the major components present in human skin and to assess whether these substances might reduce the antimicrobial activity observed for the test compounds. Performance under these conditions can provide a more reliable indication of activity on topical application. […] MIC, MBC and DDA assays, as described above, were carried out using BP and a range of different benzoquinones and hydroquinones. Supplemented DDA assays, in the presence of salt and lipid, were also conducted.
# S. aureus ATCC 29213 [7] = experiment: Synergy disc diffusion assay (SDDA); assay type: cell-based, Staphylococcus aureus; settings: for SDDA area increase / SDDA increase: quinone + BP; for SDDA area increase: over larger single-compound zone; for SDDA increase: over larger single-compound zone diameter; for SDDA with BP: quinone combined with BP on one disc, 200 μg of each (thymoquinone 50 μg)
# Text: 1. Staphylococcus aureus—the principal staphylococcal test micro-organism used in these studies was Staphylococcus aureus ATCC 29213. This strain is the one recommended for QC/QA purposes in Minimum Inhibitory Concentration (MIC) assays by the US Clinical and Laboratory Standards Institute (formerly the NCCLS), an FDA-recognised body. S. aureus ATCC 29213 is susceptible to beta-lactam antibiotics such as methicillin and to many other antibiotics in clinical use worldwide today. The staphylococci and enterococci were cultured and maintained on Mueller-Hinton Medium (agar and broth) at pH 7.2; they were incubated aerobically at 37° C. for 24 hours. This is a variation on the DDA method, in which two compounds are tested together for their combined antimicrobial activity. It provides a qualitative indication as to whether the compounds are likely to interact synergistically. Two test compounds A and B were placed on a single paper disc and the above described DDA procedure repeated. An increase in diameter of the zone of inhibition, compared to the greater of the zone diameters for the two compounds individually, was taken to indicate potential antimicrobial synergy. […] The larger the increase in zone size, the greater the likelihood of a synergistic interaction between the two test compounds. Each of the quinones was then subjected, in combination with BP, to the SDDA assay described above. In each case, increases in zone diameter (mm) and area (%) were measured with respect to those observed for the compound showing the larger zone diameters during the previous disc diffusion assays on the individual compounds. […] The exceptions were the thymoquinone assays, in which only 50 μg of the benzoquinone was used.
# [8] = Table 1, zone diameter, 200 μg per disc (thymoquinone 50 μg)
# [9] = Table 6 (Example 5), zone diameter, 200 μg per disc
# [10] = Table 10 (Example 8), zone diameter
SMILES,DDA (S. aureus ATCC 29213 [1]; [8]) [mm],DDA (S. aureus ATCC 29213 [1]; [9]) [mm],"DDA (P. acnes NCTC 737 [2]; Table 7, zone diameter) [mm]",DDA (P. acnes NCTC 737 [2]; [10]),"MBC ([3]; Staphylococcus simulans ATCC 27848, read-out: MBC) [µg/mL]","MBC (S. aureus ATCC 25923; S. aureus ATCC 25923, read-out: MBC) [µg/mL]","MBC ([4]; Staphylococcus aureus ATCC 12600, read-out: MBC) [µg/mL]","MBC (S. aureus ATCC 12606; S. aureus ATCC 12606, read-out: MBC) [µg/mL]",MBC [5] [µg/mL],DDA + lipid (P. acnes NCTC 737 [6]) [mm],DDA + salt (P. acnes NCTC 737 [6]) [mm],SDDA area increase (S. aureus ATCC 29213 [7]) [%],SDDA increase (S. aureus ATCC 29213 [7]) [mm],SDDA with BP (S. aureus ATCC 29213 [7]) [mm],"DDA (P. acnes NCTC 737 [2]; Table 11 (Example 9), mean of three replicates) [mm]",MBC ([3]; Staphylococcus simulans) [µg/mL],MBC (S. aureus ATCC 25923) [µg/mL],MBC ([4]; Staphylococcus aureus) [µg/mL],MBC (S. aureus ATCC 12606) [µg/mL]
O=C(OOC(=O)c1ccccc1)c1ccccc1 [benzoyl peroxide],11.03,9.61,24.25,19.25 (±0.18) mm,> 250,250,250,250,62.5,–,–,–,–,–,–,–,–,–,–
"CC(C)(C)c1cc(O)ccc1O [TBHQ, t-butyl hydroquinone]",41.77,46.79,9.95,8.65 (±0.31) mm,–,–,–,–,1.95,10.37,19.48,169.30,26.77,68.54,15.0,31.2,7.8,7.8,7.8
"CC1=CC(=O)C(C(C)C)=CC1=O [thymoquinone, 2-iso-propyl-5-methyl-p-benzoquinone]",15.64,–,27.46,–,–,–,–,–,–,49.01,46.49,120.91,7.60,23.24,–,–,–,–,–
"Cc1c(O)ccc(O)c1C [2,3-dimethyl-p-hydroquinone]",33.41,–,18.75,–,–,–,–,–,–,13.75,14.38,52.39,7.83,41.25,–,–,–,–,–
Oc1ccc(O)cc1 [p-hydroquinone],18.94,–,0.0,–,–,–,–,–,–,0.0,0.0,210.15,14.42,33.36,–,–,–,–,–
O=C1C=CC(=O)C=C1 [p-benzoquinone],29.34,–,24.87,–,–,–,–,–,–,37.98,31.44,37.25,5.03,34.38,–,–,–,–,–
CCc1cc(O)ccc1O [2-ethyl-p-hydroquinone],21.06,–,9.90,–,–,–,–,–,–,0.0,9.38,105.49,9.13,30.19,–,–,–,–,–
